# Measured values published in patent US20220401481A1, “DOSING REGIMENS FOR THE MOBILIZATION OF HEMATOPOIETIC STEM AND PROGENITOR CELLS” (Magenta Therapeutics, Inc., priority 2019, published 2022).
# T1: CXCR2 (Homo sapiens, UniProt P25025)
# T1 construct: endogenous in cells; host or cells: peripheral blood neutrophils of trial subjects (in vivo dosing, ex vivo measurement)
# T1 sequence (P25025 1-360): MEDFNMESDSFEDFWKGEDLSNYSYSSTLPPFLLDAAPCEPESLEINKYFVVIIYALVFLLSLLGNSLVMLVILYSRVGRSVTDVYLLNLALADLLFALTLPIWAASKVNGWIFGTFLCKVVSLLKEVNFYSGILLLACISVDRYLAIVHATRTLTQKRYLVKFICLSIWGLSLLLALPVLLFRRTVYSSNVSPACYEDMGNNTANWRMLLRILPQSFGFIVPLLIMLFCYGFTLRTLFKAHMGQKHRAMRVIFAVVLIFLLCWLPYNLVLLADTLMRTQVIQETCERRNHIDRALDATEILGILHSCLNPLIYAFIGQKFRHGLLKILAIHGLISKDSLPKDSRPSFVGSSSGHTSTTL
# B1: G-CSF: Filgrastim (G-CSF), most common clinical hematopoietic stem cell mobilization protocol, five days (protein, UniProt P09919 31-207, looked up)
# Granulocyte …: TPLGPASSLPQSFLLKCLEQVRKIQGDGAALQEKLVSECATYKLCHPEELVLLGHSLGIPWAPLSSCPSQALQLAGCLSQLHSGLFLYQGLLQALEGISPELGPTLDTLQLDVADFATTIWQQMEELGMAPALQPTQGAMPAFASAFQRRAGGVLVASHLQSFLEVSYRVLRHLAQP
# modifications: filgrastim
# Columns and labels:
# neutrophils = assay: Phase 1 clinical trial: mobilization of neutrophils (automated hematology analyzer); details: monotherapy
# Protocol: (§1) The dose of MGTA-145 was one of 0.0075 mg/kg, 0.015 mg/kg, 0.03 mg/kg, 0.075 mg/kg, 0.15 mg/kg, or 0.3 mg/kg. […] The dose of MGTA-145 was one of 0.015 mg/kg, 0.03 mg/kg, 0.075 mg/kg, or 0.15 mg/kg. […] The dose of MGTA-145 was one of 0.03 mg/kg or 0.075 mg/kg.
# (§2) Mobilization of white blood cells (WBCs), neutrophils, lymphocytes, basophils, and eosinophils was quantified by automated hematology analyzer.
# [1] = test system: hematopoietic stem and progenitor cell mobilization; details: described in U.S. Pat. No. 6,080,398; cited from earlier work
# [2] = test system: relative engraftment (CRU); assay: Primary and secondary transplantation of mobilized mouse cells at limit dilution (CRU); format: in vivo, mice; details: compared to the other cohorts
# Excerpt: Mice (CD45.1) were mobilized according to the scheme shown in FIG. 24 and mobilized cells transplanted into CD45.2 mice at limit dilution.
# MMP-9 = assay: Phase 1 clinical trial: plasma MMP-9 and TIMP-1 by sandwich immunoassay; format: in vivo, human; details: monotherapy, all six doses
# Protocol: FIGS. 6A and 6B show the plasma levels of MMP-9 and molar ratio of MMP-9:TIMP-1, respectively, over the course of 24 hours following MGTA-145 monotherapy. MMP-9 is an enzyme involved in the breakdown of extracellular matrix and indicative of neutrophil migration whereas TIMP-1 blocks MMP-9 mediated migration. Therefore, an increase in MMP-9 or an increase in MMP-9:TIMP-1 ratio is indicative of increased neutrophil mobilization. […] The plasma levels of MMP-9 then decreased towards initial concentrations over the course of 24 hours.
# CXCR2 = biological target: T1, CXCR2; assay: Phase 1 clinical trial: CXCR2 expression on peripheral blood neutrophils; format: in vivo
# Protocol: Lines from bottom to top at 6 hrs post-administration represent 0.3 mg/kg, 0.15 mg/kg, 0.075 mg/kg, 0.03 mg/kg, 0.015 mg/kg, […], respectively.
# white blood cells (WBCs) = assay: Phase 1 clinical trial: mobilization of white blood cells (automated hematology analyzer); details: monotherapy
# Protocol: as §1, §2
# CD34+ cells = assay: Phase 1 clinical trial: mobilization of CD34+ cells into peripheral blood (multicolor flow cytometry); details: for Peak CD34+ (#/μL) Median (range) / Percent ≥20/μL: Part A
# CD34+CD90+CD45RA− cells = assay: Phase 1 clinical trial: mobilization of CD34+CD90+CD45RA− cells into peripheral blood (flow cytometry); details: Part A monotherapy
# [3] = test system: neutrophil activation markers (L-selectin, CD11b, CD18, CD66); assay: Phase 1 clinical trial: neutrophil activation markers by flow cytometry; format: in vivo, human; details: monotherapy
# Excerpt: G-CSF, the traditional therapy of choice for mobilization of neutrophils, enhances neutrophil activation, as measured by CD11b and CD18, but this has been identified to be problematic, for example, in patients with sickle cell disease where activated neutrophils adhere to the endothelium, thereby increasing the risk of severe and life-threatening complications such as vaso-occlusive crises. […] In contrast, the administration of MGTA-145 monotherapy (across all six doses) induces less than a 2-fold change relative to baseline for the neutrophil activation markers of CD11b and CD18.
# [4] = test system: T cells, B cells and NK cells; details: cited from earlier work
# [5] = test system: neutrophil activation markers (L-selectin, CD11b, CD18, CD66); details: 5 days of G-CSF treatment, reported by Falanga et al., Blood 1999; cited from earlier work
# [6] = G-CSF; Pulsiper et al. (2009) Blood; cited from earlier work
# [7] = higher doses (0.075, 0.15, 0.3 mg/kg), 2 hours post administration
# [8] = lower doses (0.0075, 0.015, 0.03 mg/kg), between 1 and 2 hours post administration
# [9] = MGTA-145 on Day 1, 0.03 mg/kg (n=4)
# [10] = MGTA-145 on Day 1, 0.3 mg/kg (n=4)
# [11] = 78 healthy donors mobilized with G-CSF (Chaidos et al, Blood. 2012)
# [12] = Chen et al., 2019, G-CSF N = 112+, 1 LP
# [13] = Devine et al, 2008, median yield of 1 LP, plerixafor N = 24, G-CSF N = 8
molecule,measurement,setting,value
MGTA-145: CXCR2 agonist; truncated Gro-β with deletion of the first four N-terminal amino acids (SEQ ID NO: 2),Initial plateau of neutrophil mobilization,neutrophils; [7],5-8 ×10^3 cells/μL
same,Peak mobilization of neutrophils,neutrophils; [8],13-15 ×10^3 cells/μL
same,Potency to induce hematopoietic stem and progenitor cell mobilization relative to Gro-β,[1],superior to that of Gro-β by multiple orders of magnitude
same,"Engraftment rates, secondary transplantation",[2],vastly improved engraftment rates
same,Molar ratio of MMP-9:TIMP-1,MMP-9,rapid increase 30 minutes post-administration
same,Plasma levels of MMP-9,MMP-9,increased sharply within 30 minutes post-administration
same,CXCR2 expression recovery prior to the second dose,"CXCR2; 0.07 mg/kg, staggered dosing, two consecutive days",~80 % of baseline
same,CXCR2 on peripheral blood neutrophils,"CXCR2; monotherapy, followed by recovery over 24 hours",rapid downregulation
same,Initial plateau of WBC mobilization,white blood cells (WBCs); [7],6-10 ×10^3 cells/μL
same,Peak mobilization of WBCs,white blood cells (WBCs); [8],15-17 ×10^3 cells/μL
same,Fold increase of CD34+ cells,"CD34+ cells; Part A monotherapy, 0.03 mg/kg",7 fold
same,Peak concentration of CD34+ cells,"CD34+ cells; Part A monotherapy, 0.03 mg/kg",~10 cells/μL
same,Time of peak CD34+ mobilization post administration,"CD34+ cells; Part A monotherapy, across the six doses (0.0075-0.3 mg/kg)",about 30 minutes
same,Fold increase of CD34+ cells,"CD34+ cells; Part A monotherapy, the other doses",2-3 fold
same,Peak concentration of CD34+ cells,"CD34+ cells; Part A monotherapy, the other doses (0.0075, 0.015, 0.075, 0.15, 0.3 mg/kg)",~5 cells/μL
same,Peak CD34+ (#/μL) Median (range),CD34+ cells; [9],12 (2-19) #/μL
same,Percent ≥20/μL,CD34+ cells; [9],0 (0/4) %
same,Peak CD34+ (#/μL) Median (range),CD34+ cells; [10],3 (3-13) #/μL
same,Percent ≥20/μL,CD34+ cells; [10],0 (0/4) %
same,Time of peak CD34+CD90+CD45RA− mobilization post administration,CD34+CD90+CD45RA− cells,30 min
same,Fold increase of CD34+CD90+CD45RA− cells,CD34+CD90+CD45RA− cells; 0.03 mg/kg,~8.3 fold
same,Peak concentration of CD34+CD90+CD45RA− cells,CD34+CD90+CD45RA− cells; 0.03 mg/kg,~3 cells/μL
same,Fold increase of CD34+CD90+CD45RA− cells,CD34+CD90+CD45RA− cells; the other doses,2-3.5 fold
same,Peak concentration of CD34+CD90+CD45RA− cells,CD34+CD90+CD45RA− cells; the other doses,1-1.6 cells/μL
same,"Fold change relative to baseline, CD66",[3]; all doses except the highest (0.3 mg/kg),< 2 fold
same,"Fold change relative to baseline, CD11b and CD18",[3]; all six doses,< 2 fold
same,"Fold change relative to baseline, L-selectin",[3]; all six doses,< 2 fold
B1,"TNC/kg donor weight, Median (range)","[4]; 40 healthy donors mobilized with G-CSF (Singhal et al, BMT. 2000)",7.2 (3.2-14.0) ×10^8 cells
same,"Frequency of CD3+ T cells in graft, Median (range)",[4]; [11],45.3 (21.8-75.4) % of CD45+
same,"Frequency of CD4+ T cells in graft, Median (range)",[4]; [11],29.8 (12.6-56.5) % of CD45+
same,"Frequency of CD8+ T cells in graft, Median (range)",[4]; [11],11.8 (4.1-29.2) % of CD45+
same,"Frequency of CD19+ B cells in graft, Median (range)",[4]; [11],10.5 (0.9-34.8) % of CD45+
same,"Frequency of CD56+ NK cells in graft, Median (range)",[4]; [11],3.2 (0.5-18.4) % of CD45+
same,"Frequency of Tregs in graft, Median (range)",[4]; [11],3.5 (0.9-8.2) % of CD4+ T cells
same,"Frequency of iNKT cells in graft, Median (range)",[4]; [11],0.04 (0.00-1.07) % of CD3+
same,"CD3+ in graft, Median",[4]; [12],2.5e+08 kg⁻¹
same,"CD4+ in graft, Median",[4]; [12],1.5e+08 kg⁻¹
same,"CD8+ in graft, Median",[4]; [12],7e+07 kg⁻¹
same,"CD19+ in graft, Median",[4]; [12],5e+07 kg⁻¹
same,"CD34+ in graft, Median",[4]; [12],4.2e+06 kg⁻¹
same,"CD56+ in graft, Median",[4]; [12],1e+07 kg⁻¹
same,"CD3+ in graft, Median (range)",[4]; [13],1.3 (1.2-6.8) ×10^8/kg
same,"CD4+ in graft, Median (range)",[4]; [13],1.1 (0.7-3.2) ×10^8/kg
same,"CD8+ in graft, Median (range)",[4]; [13],0.4 (0.3-3.4) ×10^8/kg
same,"CD34+ in graft, Median (range)",[4]; [13],4.2 (2.5-18.7) ×10^6/kg
same,"CD56+ in graft, Median (range)",[4]; [13],0.2 (0.1-0.5) ×10^8/kg
same,Fold increase in neutrophil activation markers,[5],~2.7 fold
same,Tolerability,[6],"Majority with bone pain,"
